We go through two compounds from patent US8834843B2, “Imaging method” (GE Healthcare Limited, priority 2007, dated 2014).

For test [1], the system named is EA-Hy926 membranes. Put plainly: Competitive binding assay with 125I-echistatin on EA-Hy926 membranes. More on the design: species or system human. The procedure:
The inhibition constant of Compound 6 was measured using a previously-described membrane binding assay (Indrevoll et al, Bioorg & Med Chem Lett, 2006, 16, 6190-6193).
In brief, membranes from the human endothelial adenocarcinoma cell line EA-Hy926 were prepared and the Kd calculated for the purified membrane fraction. A competitive binding assay was then established to measure inhibition constants for cold Compound 6. ^125I-echistatin was used as the labelled ligand and cold echistatin as a reference standard.
A total of sixteen dilutions of cold test compound (either cold echistatin or cold Compound 6) were prepared and mixed with a combination of ^125I-echistatin and membrane prior to incubation for 1 hour at 37° C. Following several washes, the bound material was harvested on a filter using a Skatron micro harvester. The filterspots were finally excised and counted in a Packard γ-counter.
The inhibition constants for Compound 3 and Compound 8 were determined using the method described in Example 1. FIG. 3 illustrates binding of ^125I-echistatin versus cold Compound 3, Compound 8 and echistatin on EA-Hy926 membranes.

For test [2], the system named is Activated human hepatic stellate cells, LX-2. Put plainly: Binding to activated human hepatic stellate cells LX-2. The procedure:
Activated human hepatic stellate cells, LX-2 (provided by Prof. Scott L. Friedman, Mount Sinai School of Medicine, New York), were cultured in 12-well plates (Nunc) to confluence in Dulbeccos Modified Eagels Medium containing 10% FBS, streptomycin and glutamine. The cells were washed twice in a cold buffer containing 50 mM Tris, pH 7.4, 150 mM NaCl, 5 mM MnCl2, 1 mM CaCl2 and 0.01% BSA. The cells were further incubated in the buffer containing a trace amount of labelled compound (either 0.1 nM ^125I Compound 6 or 0.1 nM ^125I-echistatin) together with various concentrations of cold compound for 60 min at 4° C. with shaking. Following incubation, the unbound material was removed by washing the cells 3 times with cold buffer. The cells were detached from the wells by adding 0.1M NaOH and transferred to a tube to be counted in a gamma-counter (Packard). FIG. 2 illustrates the observed activity values.

Test [3] concerns fibrogenic livers in BDL model. As to the kind of experiment: Liver uptake in BDL vs sham rats at 15 days post-op, vs negative control. Format: in vivo, rat. Particulars: one hour post-injection. As to the method: On the appropriate day post surgery BDL and sham animals were removed and put under isoflurane anaesthesia, then each animal was injected with 0.3 ml intravenously (i.v.) via tail vein (˜3MBq). At the appropriate time point post-injection of the test item, each animal was re-anaesthetised with isoflurane, sacrificed by cervical dislocation weighed and the weight recorded via a barcode scanning system. Each animal was dissected and the following organs and tissues were removed and counted using BASIL counter protocol 40 or manual counting:
The BDL and sham animal models were set up as described in Example 3. At 15 days post-operatively, one of Compound 3, Compound 8 or a negative control was administered to each animal and liver uptake assessed as described in Example 3.

Numbered stars: 1 amine (or outer) side, 2 acyl side, 3 side chain; on linkers, the order of the positions; unused ones are H or OH. Bridge positions count the residues as written; N and C are the ends. Side chains are listed from the residue outwards. Peptide text beside a SMILES is read from it. * marks the point of attachment. X3 = CC[N+]1=C(/C=C/C=C/C=C2/N(CCCCCC(=O)*)c3ccc4c(S(=O)(=O)O)cc(S(=O)(=O)O)cc4c3C2(C)C)C(C)(C)c2c1ccc1c(S(=O)(=O)O)cc(S(=O)(=O)O)cc21; X4 = CC1=[N+]([O-])[Tc]23(=[O])(=[O])[N](CCC(CCN*)CC[N]2C(C)(C)C(C)=[N+]3[O-])C1(C)C; Glutaryl = O=C(CCCC(=O)[*:2])[*:1]

For the compound `N=C(N)NCCC[C@@H]1NC(=O)[C@@H]2CSSC[C@H](NC(=O)[C@H](CC(=O)O)NC(=O)CNC1=O)C(=O)N[C@@H](Cc1ccccc1)C(=O)N[C@H](C(=O)NCCOCCOCCOCCNC(=O)COCC(N)=O)CSCC(=O)N[C@@H](CCCCNC(=O)c1cccc([123I])c1)C(=O)N2` [Compound 6], the “Binding to EA-Hy926 membranes (in words)” value in test [1] is “binding specifically”. Also, the Ki (usually a measure of affinity in units of concentration, obtained from inhibition or displacement) in test [1] (cold compound vs 125I-echistatin, 1 hour at 37° C., read-out: Ki in the EA-Hy926 membrane assay) was around 10 nM. Besides, the “Binding to activated human hepatic stellate cells (in words)” value in test [2] is given as “binding specifically”. In addition, in test [2] (0.1 nM 125I labelled compound plus cold compound, 60 min at 4° C., read-out: EC50 in the LX-2 cell assay), the EC50 (as a rule, the midpoint of the concentration-response curve) is around 1 nM.

Regarding `CC[N+]1=C(/C=C/C=C/C=C2/N(CCCCCC(=O)NCCCC[C@@H]3NC(=O)CSC[C@@H](C(=O)NCC(=O)N[C@@H](CCCCNC(=O)CCCC(=O)NCCC4CC[N]5C(C)(C)C(C)=[N+]([O-])[Tc]56(=[O])(=[O])[N](CC4)C(C)(C)C(C)=[N+]6[O-])C(N)=O)NC(=O)[C@H](CCCNC(=N)N)NC(=O)[C@@H]4CSSC[C@H](NC3=O)C(=O)NCC(=O)N[C@@H](CC(=O)O)C(=O)N[C@@H](Cc3ccccc3)C(=O)N4)c3ccc4c(S(=O)(=O)O)cc(S(=O)(=O)O)cc4c3C2(C)C)C(C)(C)c2c1ccc1c(S(=O)(=O)O)cc(S(=O)(=O)O)cc21` (some centres unmarked) [negative control, reference compound] ({CH2CO}-K(X3)CGDFCRCGK([Glutaryl-X4])-NH2; disulfide 2-6; thioether N-8), the “Liver retention/uptake in BDL compared to sham animals (in words)” value in test [3] is reported as “no significant difference”.
